According to patent US10647673B2, “Acetophenone compound, preparation method thereof, and application thereof in fatty liver prevention and treatment” (Nanjing Bioenergy Medicine Science & Technology Co., Ltd., priority 2017, dated 2020):
“Also recorded” adds a separate entry of the source.

How the values were obtained:
Assay type in all cases: in vivo
[1] = tested on: fatty liver of the SD rats; assay: Pathological sections and grading of fatty liver of SD rats; conditions: compounds 80 mg/kg, Sim 10 mg/kg, OCA 10 mg/kg
Experimental: 500 g of lard oil was taken, placed in a container, and heated to melt. When the temperature rose to 100° C., it was added with 200 g of cholesterol to dissolve completely, and then further added with 20 g of propylthiouracil. The resulted mixture was stirred well, and added with 500 ml of Tween 80 after dissolution, resulting in an oil phase. At the same time, 600 mL of distilled water and 400 mL of 1,2-propanediol were taken and heated to 60° C. in a water bath, then were added with 40 g of sodium deoxycholate. The resulted mixture was stirred well until realizing complete dissolution, so as to give an aqueous phase. The aqueous phase was added into the oil phase and mixed well to give a lipid emulsion. The lipid emulsion was heated in a water bath of 37° C. before intragastric administration to animals.
An appropriate amount of pharmaceutical was weighed, added with 0.5% CMC-Na, and mixed homogeneously by grinding. There are groups for Compound 01 (80 mg/kg), Compound 02 (80 mg/kg), Compound 03 (80 mg/kg), Compound 04 (80 mg/kg), Compound 05 (80 mg/kg), Compound 06 (80 mg)/kg), Compound 07 (80 mg/kg), Compound 08 (80 mg/kg), Compound 09 (80 mg/kg), Compound 10 (80 mg/kg), Compound 11 (80 mg/kg), Compound 12 (80 mg/kg), Compound 13 (80 mg/kg), Compound 14 (80 mg/kg), Compound 15 (80 mg/kg), Compound 16 (80 mg/kg), Compound 17 (80 mg/kg), Compound 18 (80 mg/kg), Compound 19 (80 mg/kg), Compound 20 (80 mg/kg), Compound 21 (80 mg/kg), and Compound 22 (80 mg/kg).
Male SD rats weighing 180-200 g were fed adaptively for 7 days. Based on body weight, 10 animals were used as control and the remaining animals were intragastrically administered with the lipid emulsion every day, 1 ml/100 g body weight for 14 days. After fasting for 12 hours, 1 mL of blood was collected from the orbits of the animals, and was determined by Hitachi Automatic Biochemical Analyzer 7080 for serum cholesterol (CHO), triglyceride (TG), low density lipoprotein (LDL-C) and high density lipoprotein (HDL-C).
The modeled rats were continued with the intragastric administration of the lipid emulsion. At the same time, the pharmaceutical-administered groups were administrated with a corresponding dose of pharmaceuticals, while the Model group was administrated with an equal volume of solvent. The pharmaceutical-administered groups were administrated with the lipid emulsion in the morning, and with the pharmaceuticals in the afternoon. The animals were measured for the body weight once a week, and were observed. After 14 days of continuous administration, 1 mL of blood was collected from the orbits, and was determined for the contents of triglyceride, cholesterol, low density lipoprotein and high density lipoprotein in blood serum.

[2] = tested on: nutritive obesity C57 mice; assay: Weight loss experiment in nutritive obesity C57 mice; design: key to body weight of mice: body weight in g; conditions: for body weight of mice: high-fat diet, orlistat 40 mg/kg, Compounds 13 and 14 80 mg/kg intragastric, x ± s, n = 6; for effect on body weight compared with Orlistat (in words) / effect on body weight (in words): nutritive obesity C57 mice; for effect on body weight compared with Orlistat (in words): 80 mg/kg vs orlistat 40 mg/kg; for effect on body weight (in words): 80 mg/kg, as compared with Model group
Source text: C57 mice, male, 18-20 g of body weight. The mice were randomly divided into Control group, Model group, Orlistat group, Compound 13 group and Compound 14 group, with 6 mice in each group.
(§1) appropriate amounts of orlistat, Compound 13 and Compound 14 were weighed respectively, added with 0.5% CMC-Na and grinded to dissolve.
The mice in Control group were fed with normal diet, and the other mice were fed with high-fat diet. All of the mice had free access to water. After one week of feeding, the pharmaceuticals were intragastrically administrated. The dose was 40 mg/kg body weight for orlistat, 80 mg/kg for Compounds 13 and 14. The body weight of the mice was weighed every week during the experiment which lasted for 28 days.

ob/ob mice = assay: Weight loss experiment in ob/ob mice; conditions: for body weight of ob/ob mice: orlistat 40 mg/kg, other pharmaceuticals 80 mg/kg intragastric, x ± s, n = 6; for effect on body weight compared with Orlistat (in words) / effect on body weight (in words): ob/ob mice; for effect on body weight compared with Orlistat (in words): 80 mg/kg vs orlistat 40 mg/kg; for effect on body weight (in words): 80 mg/kg, as compared with Model group
Source text: […] ob/ob mice, male, 18-20 g of body weight, fed adaptively for one week before use. The mice were randomly divided into Control group, Model group, Orlistat group, Compound 13 group and Compound 14 group, with 6 mice in each group.
as §1
After feeding for one week, the mice were intragastrically administrated with the pharmaceuticals except the mice of Control group. The dose was 40 mg/kg body weight for orlistat, 80 mg/kg for the other pharmaceuticals. The body weight of the mice was weighed every week during the experiment which lasted for 28 days.

[3] = Experiment Day 0, in g (unit assumed)
[4] = Experiment Day 7, in g (unit assumed)
[5] = Experiment Day 14, in g (unit assumed)
[6] = Experiment Day 21, in g (unit assumed)

Structure (SMILES)	Pathological grading: Steatotic hepatocytes ([1]; animal 1)	Pathological grading: Steatotic hepatocytes ([1]; animal 2)	Pathological grading: Steatotic hepatocytes ([1]; animal 3)	Pathological grading: Steatotic hepatocytes ([1]; animal 4)	Pathological grading: Steatotic hepatocytes ([1]; animal 5)	body weight of mice [2, 3]	body weight of mice [2, 4]	body weight of mice [2, 5]	body weight of mice [2, 6]	body weight of mice ([2]; Experiment Day 28)	effect on body weight compared with Orlistat (in words) [2]	effect on body weight (in words) [2]	body weight of ob/ob mice (ob/ob mice; [3])	body weight of ob/ob mice (ob/ob mice; [4])	body weight of ob/ob mice (ob/ob mice; [5])	body weight of ob/ob mice (ob/ob mice; [6])	body weight of ob/ob mice (ob/ob mice; Experiment Day 28)	effect on body weight compared with Orlistat (in words) (ob/ob mice)	effect on body weight (in words) (ob/ob mice)	Pathological grading: Infiltration of inflammatory cells ([1]; animal 1)
CC(=O)c1ccc(O)c(OC(=O)C(C)(C)CCCOc2cc(C)ccc2C)c1 [Compound 13]	+ (25-45% of hepatocytes undergoing steatosis)	++ (45-65% of hepatocytes undergoing steatosis)	+ (25-45% of hepatocytes undergoing steatosis)	++ (45-65% of hepatocytes undergoing steatosis)	++ (45-65% of hepatocytes undergoing steatosis)	17.20 ± 1.92	19.97 ± 0.57	21.04 ± 0.29	22.14 ± 0.31	23.25 ± 0.26	better effect than Orlistat	obvious effects on weight loss; also recorded: significantly decrease the body weight of the mice from Day 14	20.74 ± 1.10	21.43 ± 0.61	22.10 ± 0.16	24.53 ± 1.76	26.10 ± 1.95	better effect than Orlistat	obvious effects on weight loss; also recorded: significantly decrease the body weight of the ob/ob mice	–
CC(=O)c1ccc(O)c(OC(=O)c2cccnc2)c1 [Compound 14]	+ (25-45% of hepatocytes undergoing steatosis)	–	+ (25-45% of hepatocytes undergoing steatosis)	+ (25-45% of hepatocytes undergoing steatosis)	–	17.21 ± 1.57	19.83 ± 0.71	20.87 ± 0.75	21.89 ± 0.77	22.92 ± 0.88	better effect than Orlistat	obvious effects on weight loss; also recorded: significantly decrease the body weight of the mice from Day 14	20.79 ± 0.39	21.22 ± 0.38	22.18 ± 0.42	24.10 ± 0.45	26.17 ± 0.86	better effect than Orlistat	obvious effects on weight loss; also recorded: significantly decrease the body weight of the ob/ob mice	0
